# How the values were obtained:
# [1] = system: MDA-MB-231 cells; assay: Boyden chamber migration assay; type: cell-based, human; settings: 5, 10 and 20 μM, 22 h
# Procedure: Cell migration was also assessed in a chemotactic assay using 24 well Boyden chambers (BD Biosciences) as described earlier. MDA-MB-231 (0.5 x 10^5/350 μL) cells, incubated or not with complex (4) 5, 10 and 20 μM were seeded on the upper chamber in a DMEM incomplete medium (without FBS). In the lower chamber DMEM medium supplemented with 10% FBS was added. Cells were allowed to migrate for 22 h at 37°C and 5% CO2 in a humidified environment. Then, cells that remained in the upper chamber were removed using a cotton swab. Cells that migrated to the other side of the upper chamber membrane were fixed with methanol and stained with 1% toluidine blue. Migrated cells were quantified by manual counting and inhibition ratio was expressed as % of control.
# [2] = system: MDA-MB-231 cells; assay: Colony formation (clonogenic) assay; type: cell-based, human; settings: 3 h treatment, 10 days
# Procedure: Exponentially growing MDA-MB-231 cells were harvested, counted and seeded (300 cells/plate) into Petri dishes. Cells were allowed to grow at 37°C in 5% CO2 overnight and then, treated with different concentrations of complex (4) for 3 h. After this time, the medium was changed to a fresh medium without any complex. After incubation for additional 10 days the cells were rinsed with PBS, fixed with methanol and acid acetic 3:1 for 5 min and stained with methanol and crystal violet 5% for 15min. Relative survival was calculated from the number of single cells that formed colonies of >50 cells on the tenth day.
# [3] = system: Caspase-3, Caspase-9 and Bcl-2 protein levels in MDA-MB-231 cells; assay: Western blotting of apoptosis related proteins; type: cell-based, human; settings: even at 2.5 μM, 6 h
# Procedure: MDA-MB-231 cells (1.0 x 10^6/plate) were incubated for 6 h with (2.5, 5 and 10μM) or without (control) the complex (4) in Petri dishes (6 cm) at 37°C in a humidified incubator with 5% CO2. After incubation, cells were lysed using RIPA buffer (150 mM NaCl; 50 mM Tris-HCl pH 7.4; 50 mM NaF; 2 mM EDTA; 1.0% NP-40; 0.5 mM Na-deoxycholate; 0.1% SDS, pH 8.0) and the content was transferred to a 1.5 mL microtube. Protein concentrations of supernatants were determined using DC Protein Assay kit (Bio-Rad). […] Beta-actin was used as endogenous control. Substrate development was performed using SuperSignal West Dura Extended Substrate reagent (Thermo Scientific). Specific bands were visualized with ChemiDoc MP imager (BioRad Laboratories) and quantified with Image J software, normalized to β-actin.
# [4] = system: MMP-9; assay: Gelatin zymography of wound healing supernatants; type: cell-based, human; settings: 24 h
# Procedure: MDA-MB-231 cells (1.0 x 10^5/well) were seeded into 12-wells culture plates and cultured in a medium containing FBS 10% to near confluence (80%) of the cell monolayer. Monolayers were carefully wounded using a pipette tip, and any cellular debris present was removed by washing with PBS. The wounded monolayers were then incubated in serum-free medium containing 2.5, 5, 10 and 20 μM of complex (4) for 24 h. After this time, supernatants of the wound healing assay were collected and tested for MMP secretion as previously described. Briefly, equal amounts of total protein ([…]) were subjected to electrophoresis. Zymography gels consisted of 10% polyacrylamide impregnated with gelatin at a final concentration of 1% in the presence of sodium dodecyl sulfate (SDS) under non-reducing conditions. […] Gels were then stained with coomassie brilliant blue for 30 min and destained in methanol and acetic acid for 20 min. Gelatin degrading enzymes were visualized as clear white bands against a blue background, indicating proteolysis of the substrate protein. The molecular mass of gelatinolytic activities was determined by comparison to reference protein molecular mass marker PageRuler Prestained Protein Ladder (Thermo Fisher Scientific). Activity bands were identified following the previous description according to their molecular weights.
# [5] = system: Bax, Caspase-3 and Bcl-2 gene expression in MDA-MB-231 cells; assay: RT-qPCR of apoptosis related genes; type: cell-based, human; settings: 40 μM, 3 h
# Procedure: MDA-MB-231 cells (1.0 x 10^6/plate) were incubated for 3 h with (20 and 40 μM) or without (control) the complex (4) in Petri dishes (6 cm) at 37°C in a humidified incubator with 5% CO2. Total RNA was extracted using Trizol reagent (Invitrogen). cDNAs were synthesized using Enhanced Avian RT First Strand Synthesis kit (Sigma-Aldrich, St. Louis, MO, USA). A Rotor-Gene 6000 real-time rotary analyzer (Corbett Life Science, Australia) was used to amplify both target and internal control templates (1 cycle at 95°C for 5 min and 40 amplification cycles at 95°C for 30 sec, 55°C for 30sec and 72°C for 45sec). In brief, 1 μL of reverse transcribed product template, 5 μL of SYBR Green JumpStart Taq ReadyMix (Sigma-Aldrich) and the gene-specific primer pairs at a final concentration of 500 nmol l^-1 for each primer, made 10 μL of reaction system. Primers used in the assays were: Caspase-3 (Forward: 5’GTG CTA CAA TGC CCC TGG AT3’; Reverse: 5’GCCCATTCATTTATTGCTTTC C3’), Bax (Forward: 5’CAT CCA GGA TCG AGC AGG3’; Reverse: 5’CGA TGC GCT TGA GAC ACT C3), Bcl-2 (Forward: 5’GGT GGG AGG GAG GAA GAA T3’; Reverse: 5’GCA GAG GCA TCA CAT CGA C3’) and β-actin (Forward: 5’GACGGCCAGGTCATCACCATT G3’; Reverse: 5’AGCACTGTGTTGGCGTACAGG 3’). Bax primers (NM_001291428.1) and Bcl-2 (NM_000633.2) were designed with Gene Runner available at http://generunner.net/ (version5.0.63 Beta), except for the primer Caspase-3 (NM_004346.3). For each gene, all samples were amplified simultaneously in duplicate in one assay run. The internal calibrator used as a basis to standardize the results of expression was the control group ΔCts average. Calibration was determined by ΔΔCt = ΔCt (sample) − ΔCt (calibrator). Gene expression was assessed by relative quantification, using the formula 2-ΔΔCt and β-actin as internal control. Data represent three assays in duplicate. A blank with water, primers and SYBR Green instead of template sample was performed.
# [6] = Water-octanol partition coefficient (stir-flask method); type: physicochemical; settings: 24 h shaking, 37°C
# Procedure: The water-octanol partition coefficients were determined by use of the stir-flask method. The complex was added in a mixture with equal volumes of water and octanol shaking by 24 h at 100 rpm and 37°C, samples were centrifuged for 5min at 300rpm, the organic and aqueous phases were separated. The concentration of drug in each phase was measured spectrophotometrically in order to determine values of P = [drug] (in octanol)/[drug] (in water).
compound,measurement,setting,value
"CC(=O)[O-].F[P-](F)(F)(F)(F)F.[Ru+2].c1ccc(-c2ccccn2)nc1.c1ccc(P(CCCCP(c2ccccc2)c2ccccc2)c2ccccc2)cc1 [Complex (4), [Ru(CH3CO2)(dppb)(bipy)]PF6]",effect on cell migration (Boyden chamber),[1],inhibited MDA-MB-231 cell migration in a concentration dependent fashion
same,effect on colony formation,[2]; 20 μM,completely abolished the capacity of breast tumor cells to form colonies
same,effect on colony number and size,"[2]; 2.5, 5, 10 and 20 μM",significantly inhibited the colony number and size
same,cleaved Caspase-3 protein levels,[3],increased
same,cleaved Caspase-9 protein levels,[3],increased
same,inhibition of expression of MMP-9 compared to untreated control,[4]; 20 μM,60%
same,effect on expression of MMP-9,"[4]; 2.5, 5 and 10 μM",did not inhibit the expression of MMP-9
same,Bax gene expression,[5],upregulated
same,Bcl-2 gene expression,[5],did not affect
same,Caspase-3 gene expression,[5],upregulated
same,Log P,[6],0.77 ± 0.03
